From patent US20030162723A1, “Supplementation of equine feedstuffs” (priority 2000, published 2003)
“Also recorded” adds a separate entry of the source.

How the values were obtained:
[1] = Plasma ammonia after feeding molassed sugar beet supplemented with L-glutamine (dry-strip analyser); assay type: in vivo, horse; settings: glutamine supplementation, 60 mg/kg bwt with mSB
Method: The mSB, hay and water were provided as in Part 1.
Blood samples were drawn through an indwelling jugular catheter into tubes containing lithium heparin (on ice). In Part 1 samples were taken pre and at 0.5, 1, 1.5, 2, 3, 4, 6 and 8 hours post feed. In Parts 2, 3 and 4 samples were taken pre and at 0.25, 0.5, 0.75, 1, 1.5, 2, 3, 4, 6 and 8 hours. Samples were centrifuged, the plasma harvested, divided into aliquots and stored at −80° C.
Total plasma protein content was estimated using a refractometer (Goldberg Refractometer).

[2] = design: species or system horse; settings: in vivo
Source text: Six stabled Thoroughbred horses (2 mares, 4 geldings; aged 5-9 years), were maintained on hay and mixed feed for a minimum of two weeks before the start of the study. Horses were fed at 8 am and 4 pm. The mixed feed was a mix of cereal sources, fibre sources and protein sources with added vitamins and minerals. The ingredients included, in descending order of inclusion, enriched fibre pellets, rolled oats, soya hull pellets, flaked maise, flaked barley, flaked peas, molgio, full fat soya, vegetable oils, lucerne (alfalfa), calcium carbonate, dicalcium phosphate, salt, lysine, magnesium phosphate and zinc sulphate. Analysis: oil 8%, protein 12%, fibre 11%, ash 7.5%.
Within each part of the study, the order of the feeds was randomised between horses using a Latin Square design. The study comprised four parts:
Part 1: Acute plasma glutamine response to a single feed of molassed sugar beet (mSB), naked oats (nO) and mixed feed (M). […] Total plasma proteins were measured as an indication of plasma volume changes related to the hay or test feeds. […]
Plasma was deproteinised with an equal volume of perchloric acid and neutralised with KHCO3. […] The method was a consolidation of those by Lund (1974), and, Beutler and Michal (1974), creating a one-step enzymic method applied to a microplate reader using only 20 μl of sample. […]

- effect on plasma ammonia concentration ([1]; listed as G): no significant increase
- response (peak concentration and AUC) compared with the peptide [2]: greater response
Structure (SMILES): NC(=O)CC[C@H](N)C(=O)O [L-glutamine]
- effect on plasma ammonia concentration [1]: unaffected; also recorded: Neither did oral ingestion of glutamine have any effect
